# According to patent US7527935B2, “G-protein coupled receptor having eicosanoid as ligand and gene thereof” (Mitsubishi Tanabe Pharma Corporation, priority 2002, dated 2009):
# Columns and labels:
# [1] = biological target: T1, fusion protein of TG1019 protein and Giα1 (351Cys→Ile) (Homo sapiens, UniProt P63096+Q8TDS5, C351I/D111G/K206E/T295A); test: [35S]GTPγS binding to membrane fraction containing TG1019-Giα1 (351Cys→Ile) fusion protein (ligand identification); type: biochemical; settings: membrane fraction with TG1019-Giα1 (351Cys→Ile) fusion protein
# T1 construct: made in house; host or cells: Sf9 insect cells (baculovirus, pVL1392), membrane fraction
# T1 sequence (Q8TDS5+P63096 fused Q8TDS5:D111G/Q8TDS5:K206E/Q8TDS5:T295A/P63096:C351I): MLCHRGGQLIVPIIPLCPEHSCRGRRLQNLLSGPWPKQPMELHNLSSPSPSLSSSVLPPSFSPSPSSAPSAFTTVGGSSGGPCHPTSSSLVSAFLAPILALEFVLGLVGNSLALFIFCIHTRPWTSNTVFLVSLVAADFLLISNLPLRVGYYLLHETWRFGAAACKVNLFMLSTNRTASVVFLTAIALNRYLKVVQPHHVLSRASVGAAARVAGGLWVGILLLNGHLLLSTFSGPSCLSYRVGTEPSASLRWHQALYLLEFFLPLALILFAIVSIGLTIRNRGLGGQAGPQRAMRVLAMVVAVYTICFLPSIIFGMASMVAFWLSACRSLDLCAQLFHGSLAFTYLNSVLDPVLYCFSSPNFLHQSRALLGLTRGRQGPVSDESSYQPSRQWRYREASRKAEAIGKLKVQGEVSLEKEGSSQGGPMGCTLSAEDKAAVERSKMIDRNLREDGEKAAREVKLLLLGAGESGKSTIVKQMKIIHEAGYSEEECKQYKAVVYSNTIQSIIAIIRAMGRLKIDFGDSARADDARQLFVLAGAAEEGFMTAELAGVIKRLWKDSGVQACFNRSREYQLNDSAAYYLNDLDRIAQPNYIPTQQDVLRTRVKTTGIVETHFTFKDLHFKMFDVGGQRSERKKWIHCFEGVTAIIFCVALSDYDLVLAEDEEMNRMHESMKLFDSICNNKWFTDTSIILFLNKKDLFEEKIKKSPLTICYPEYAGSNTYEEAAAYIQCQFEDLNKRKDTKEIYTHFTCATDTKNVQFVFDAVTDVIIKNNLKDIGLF
# Text: (§1) As stated in Example 1, it is concluded that TG1019 protein is a G-protein coupled receptor. Therefore, using a membrane fraction containing fused protein of TG1019 and G-protein, a ligand is identified as follows, according to a method for detecting a ligand-dependent binding with GTPγS (guanosine 5′-O-(3-thiotriphosphate)) [Wenzel-Seifert, et al., Mol. Pharmacom., Vol. 58, pp. 954-966, 2000; Bahia, et al., Biochemistry, Vol. 37, pp. 11555-11562, 1998].
# Sf9 cells were inoculated onto a 10 cm Petri dish coated with collagen to about 70% confluence, and added thereto were Virus solution III (100 μl) obtained above and 12 ml of a culture medium, and the mixture was cultured at 27° C. for 4 days. The obtained cells were washed with a cooled PBS (Phosphate buffered saline, pH 7.4), and suspended in 3.6 ml of a cooled solution buffer [20 mM Tris-HCl, pH 7.5, 1 mM EDTA, 0.2 mM phenylmethylsulfonyl fluoride, 10 μg/ml pepstatin, 10 μg/ml leupeptin, and 2 μg/ml aprotinin], and the cells were homogenized by means of a Teflon homogenizer. This cell homogenate was centrifuged (600×g, 10 minutes), and the resultant supernatant was further centrifuged (50,000×g, 20 minutes). The obtained sediments were suspended in 450 μl of a cooled reaction buffer [20 mM Tris-HCl, pH 7.5, 50 mM sodium chloride, 10 mM magnesium chloride] by means of a Teflon homogenizer, to prepare a membrane fraction containing a fusion protein.
# The membrane fraction (450 μl) obtained above (2) was suspended in a reaction buffer (7.54 ml), and added thereto was GDP (10 mM, 10 μl). To 160 μl of this solution was added 20 μl of a test compound. After incubating the mixture at 30° C. for 10 minutes, 20 μl of [^35S] GTPγS (5 nM, 5 nCi/μl: available from Amersham Pharmacia Biotech) was added to start reaction. After incubating the mixture at 30° C. for one hour, the reaction was terminated by filtration through a glass filter (UniFilter-96GF/B, available from Packard). The filter was washed with 200 μl of a cooled reaction buffer for 3 times, and an amount of the [^35S] GTPγS (a binding amount to the membrane fraction) on the filter was measured by liquid scintillation counting. From the thus measured [^35S] GTPγS binding amount was subtracted a nonspecific binding amount (a binding amount measured in the presence of 10 μM GTPγS), to obtain a specific binding amount of [^35S ] GTPγS.
# eosinophils = test: Migration test of eosinophils; type: cell-based; settings: purified human eosinophils; 1.5 hours
# Experimental: Blood was collected (50 ml) from healthy male adult volunteers, and from the collected peripheral blood, eosinophils were purified as follows.
# After washing the eosinophils and neutrophils purified in the above sections, the cells were suspended in RPMI1640 supplemented with 0.1% BSA (not containing phenol red) which contains 3 μM Calcein-AM (Dojindo laboratories, fluorescence reagent), so that the cell count became 1×10^6 cells/ml. The suspension was incubated at 37° C. for 30 minutes. The cells were washed twice with the same culture medium, and suspended in the same medium so that the cell count became 1×10^6 cells/ml.
# Using these cells, cell migration test was carried out using 2 chambers for migration test (Transwell; 3 μm pore, 24 well, 3422 [Costar]). […]
# After the reaction, the chambers were removed, and to the lower chamber was added 66 μl of 10× lysis buffer (5% Triton X-100 dissolved in PBS, 10% ethanol). […] 200 μl of the cell lysate was transferred to 96 well black plate (237105, Nunc), and fluorescence intensities were measured using a fluorometer (ARVO™ SX, Wallac) with an excitation wavelength of 485 nm and a fluorescence wavelength of 535 nm.
# [2] = biological target: T2, fusion protein of TG1019 protein and Gqα (Homo sapiens, UniProt Q8TDS5, D111G/K206E/T295A); test: [35S]GTPγS binding to membrane fraction containing TG1019-Gqα fusion protein; type: biochemical; settings: membrane fraction with TG1019-Gqα fusion protein; increase small compared to Giα
# T2 construct: made in house; host or cells: Sf9 insect cells (baculovirus, pVL1392), membrane fraction
# T2 sequence (Q8TDS5 with tags, fused parts or gaps D111G/K206E/T295A): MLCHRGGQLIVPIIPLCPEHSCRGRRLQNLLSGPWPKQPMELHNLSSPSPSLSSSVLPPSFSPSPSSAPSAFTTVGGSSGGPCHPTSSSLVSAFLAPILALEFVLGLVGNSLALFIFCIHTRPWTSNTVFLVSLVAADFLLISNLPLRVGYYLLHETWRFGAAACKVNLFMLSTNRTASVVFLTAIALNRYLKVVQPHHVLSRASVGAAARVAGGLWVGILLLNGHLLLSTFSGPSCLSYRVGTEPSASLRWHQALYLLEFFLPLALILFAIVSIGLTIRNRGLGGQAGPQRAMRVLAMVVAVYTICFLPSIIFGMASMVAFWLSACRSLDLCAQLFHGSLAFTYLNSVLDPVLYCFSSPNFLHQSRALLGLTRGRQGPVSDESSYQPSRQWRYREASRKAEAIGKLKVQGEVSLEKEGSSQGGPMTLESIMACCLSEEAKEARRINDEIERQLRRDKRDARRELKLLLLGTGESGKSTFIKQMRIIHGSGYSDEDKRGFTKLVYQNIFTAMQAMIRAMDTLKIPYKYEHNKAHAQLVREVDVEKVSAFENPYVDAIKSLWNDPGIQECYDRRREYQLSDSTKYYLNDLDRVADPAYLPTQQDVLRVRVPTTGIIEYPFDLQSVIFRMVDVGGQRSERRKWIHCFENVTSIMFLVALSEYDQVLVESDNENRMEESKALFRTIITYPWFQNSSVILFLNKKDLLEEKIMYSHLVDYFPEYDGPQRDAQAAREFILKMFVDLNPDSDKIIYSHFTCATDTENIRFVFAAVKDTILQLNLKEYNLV
# Text: as §1
# Sf9 cells were inoculated onto a 10 cm Petri dish coated with collagen to about 70% confluence, and added thereto were Virus solution III (100 μl) obtained above and 12 ml of a culture medium, and the mixture was cultured at 27° C. for 4 days. […]
# The membrane fraction (450 μl) obtained above (2) was suspended in a reaction buffer (7.54 ml), and added thereto was GDP (10 mM, 10 μl). […] GTPγS (a binding amount to the membrane fraction) on the filter was measured by liquid scintillation counting. From the thus measured [^35S] GTPγS binding amount was subtracted a nonspecific binding amount (a binding amount measured in the presence of 10 μM GTPγS), to obtain a specific binding amount of [^35S ] […]
# TG1019 protein = test: Forskolin-stimulated cAMP production in CHO cells transiently expressing TG1019; type: cell-based, human
# Text: A TG1019 protein expression vector was transiently introduced to CHO cells to have a recombinant TG1019 protein expressed, and using these cells, a function of TG1019 protein as an eicosanoid receptor was confirmed.
# At first, a DNA encoding an entire region of TG1019 protein obtained in Example 1 (1) mentioned above was subcloned in NotI recognition site of a vector plasmid pcDNA3.1 (an expression vector, available from Invitrogen), to obtain TG1019 protein expression vector plasmid pcDNA3.1-TG1019.
# CHO cells (1×10^6 cells) were cultured in DMEM/F-12 culture medium supplemented with 10% fetal bovine serum at 37° C. for 20 hours. Using these cells, transfection was carried out by adding plasmid DNA (pcDNA3.1-TG1019, or as a control, vector pcDNA3.1) (5 μg) and transfection reagent (LipofectAMINE, available from Invitrogen), and the mixture was cultured for 24 hours. In case of using pretreatment with pertussis toxin, pertussis toxin (100 ng) was added after 20 hours of culture and the mixture was successively cultured for 4 hours.
# The cells after culture were collected, washed, and suspended in a KRH buffer (Krebs-Ringer Hepes buffer, pH 7.4) containing rolipram (25 mM). The suspension was incubated at 37° C. for 30 minutes and inoculated in a 96 well plate (5-7.5×10^4 cells/90 μl/well).
# Subsequently, KRH buffer (90 μl/well) containing forskolin (1 μM) and 5-oxo-ETE (the final concentration 0M or 10^−11 to 10^−5 M) was added thereto, and after the mixture was incubated at room temperature for 10 minutes, the cells were lysed to measure a cAMP production amount.
# The cAMP production amount was measured using cAMP enzyme immunoassay system available from Amersham Biosciences.
smiles,measurement,setting,value
"CCCCC/C=C\C/C=C\C/C=C\C=C\C(=O)CCCC(=O)O [5-oxo-ETE, 5-oxo-6E,8Z,11Z,14Z-eicosatetraenoic acid]",specific binding amount of [35S]GTPγS,[1],increased in a concentration-dependent manner
same,migration of eosinophils,eosinophils,has an ability to make these cells migrate
same,specific binding amount of [35S]GTPγS,[2],increased
same,cAMP production amount upon forskolin stimulation,"TG1019 protein; CHO cells with pcDNA3.1-TG1019 introduced, forskolin 1 μM, concentration-dependent",inhibited
same,cAMP production,TG1019 protein; TG1019-expressing CHO cells pretreated with pertussis toxin,not inhibited
same,cAMP production amount upon forskolin stimulation,TG1019 protein; control CHO cells with only vector introduced,not changed
